Patent US20240041042A1, “1-(PYRIDYL)-5-AZINYLPYRAZOLE DERIVATIVES, AND THEIR USE FOR CONTROL OF UNDESIRED PLANT GROWTH” (Bayer Aktiengesellschaft, priority 2020, published 2024)
Like-named read-outs stand apart in the source and are kept apart here.

Experiments:
Assay type in all cases: in vivo
[1] = test system: Alopecurus myosuroides (ALOMY); test: Pre-emergence herbicidal action against ALOMY; details: scored visually after about 3 weeks, 100% = plants have died
From the text: (§1) Seeds of monocotyledonous and dicotyledonous weed plants and crop plants are placed in plastic or organic planting pots and covered with soil. The compounds of the invention, formulated in the form of wettable powders (WP) or as emulsion concentrates (EC), are then applied to the surface of the covering soil as aqueous suspension or emulsion with addition of 0.5% additive at a water application rate equivalent to 600 l/ha. After the treatment, the pots are placed in a greenhouse and kept under good growth conditions for the trial plants. After about 3 weeks, the effect of the preparations is scored visually in comparison with untreated controls as percentages. For example, 100% activity=the plants have died, 0% activity=like control plants.
(§2) Tables A1 to A13 below show the effects of selected compounds of the general formula (I) on various harmful plants and at an application rate corresponding to 320 g/ha or lower, which were obtained by the experimental procedure mentioned above. The appendices “a”, “b” and “c” give differentiation by dosage used with otherwise the same harmful plants tested.

[2] = test system: Amaranthus retroflexus (AMARE); test: Pre-emergence herbicidal action against AMARE; details: visual scoring after about 3 weeks vs untreated controls
From the text: as §1, §2

Avena fatua (AVEFA) [3] = test: Pre-emergence herbicidal action against AVEFA; details: visual scoring after about 3 weeks vs untreated controls
From the text: as §1, §2

[4] = test system: Echinochloa crus-galli (ECHCG); test: Pre-emergence herbicidal action against ECHCG
From the text: as §1, §2

Lolium rigidum (LOLRI) [5] = test: Pre-emergence herbicidal action against LOLRI
From the text: as §1, §2

[6] = test system: Matricaria inodora (MATIN); test: Pre-emergence herbicidal action against MATIN; details: dosage 320 g/ha
From the text: as §1, §2

[7] = test system: Pharbitis purpurea (PHBPU); test: Pre-emergence herbicidal action against PHBPU; details: dosage 320 g/ha
From the text: as §1, §2

[8] = test system: Polygonum convolvulus (POLCO); test: Pre-emergence herbicidal action against POLCO
From the text: as §1, §2

Setaria viridis (SETVI) [9] = test: Pre-emergence herbicidal action against SETVI
From the text: as §1, §2

[10] = test system: Verconica persica (VERPE); test: Pre-emergence herbicidal action against VERPE
From the text: as §1, §2

Viola tricolor (VIOTR) [11] = test: Pre-emergence herbicidal action against VIOTR
From the text: as §1, §2

[12] = test system: Abutilon theophrasti (ABUTH); test: Post-emergence herbicidal action against ABUTH; details: 320 g/ha, visual rating about 3 weeks after treatment vs untreated controls (100% = plants have died, 0% = like control plants)
Procedure: (§3) Seeds of monocotyledonous and dicotyledonous weeds and crop plants are placed in sandy loam in plastic or organic planting pots, covered with soil and cultivated in a greenhouse under controlled growth conditions. 2 to 3 weeks after sowing, the test plants are treated at the one-leaf stage. The compounds of the invention, formulated in the form of wettable powders (WP) or as emulsion concentrates (EC), are then sprayed onto the green parts of the plants as aqueous suspension or emulsion with addition of 0.5% additive at a water application rate of 600 l/ha (converted). After the test plants have been kept in the greenhouse under optimum growth conditions for about 3 weeks, the activity of the preparations is rated visually in comparison to untreated controls. For example, 100% activity=the plants have died, 0% activity=like control plants.
(§4) Tables B1 to B13 below show the effects of selected compounds of the general formula (I) according to Table 1 on various harmful plants and at an application rate corresponding to 320 g/ha or lower, which were obtained by the experimental procedure mentioned above. The appendices “a”, “b” and “c” give differentiation by dosage used with otherwise the same harmful plants tested.

[13] = test system: Alopecurus myosuroides (ALOMY); test: Post-emergence herbicidal action against ALOMY; details: visual rating about 3 weeks after treatment vs untreated controls (100% = plants have died, 0% = like control plants)
Procedure: as §3, §4

[14] = test system: Amaranthus retroflexus (AMARE); test: Post-emergence herbicidal action against AMARE
Procedure: as §3, §4

Avena fatua (AVEFA) [15] = test: Post-emergence herbicidal action against AVEFA; details: visual rating about 3 weeks after treatment
Procedure: as §3, §4

[16] = test system: Echinochloa crus-galli (ECHCG); test: Post-emergence herbicidal action against ECHCG
Procedure: as §3, §4

Lolium rigidum (LOLRI) [17] = test: Post-emergence herbicidal action against LOLRI
Procedure: as §3, §4

[18] = test system: Polygonum convolvulus (POLCO); test: Post-emergence herbicidal action against POLCO
Procedure: as §3, §4

Setaria viridis (SETVI) [19] = test: Post-emergence herbicidal action against SETVI
Procedure: as §3, §4

[20] = test system: Verconica persica (VERPE); test: Post-emergence herbicidal action against VERPE
Procedure: as §3, §4

Viola tricolor (VIOTR) [21] = test: Post-emergence herbicidal action against VIOTR
Procedure: as §3, §4

Oryza sativa (ORYSA) = details: crop plant compatibility
Procedure: as §3
(§5) The observed effects on selected crop plants are reported here in comparison to the untreated controls (values in %). The appendices “a”, “b” and “c” give differentiation by dosage used with otherwise the same crop plants tested.

[22] = test system: Matricaria inodora (MATIN); test: Post-emergence herbicidal action against MATIN
Procedure: as §3, §4

Zea mays (ZEAMX) = test system: Zea mays (ZEAMX)
Procedure: as §3, §5

[23] = test system: Pharbitis purpurea (PHBPU); test: Post-emergence herbicidal action against PHBPU; details: dosage 320 g/ha
Procedure: as §3, §4

[24] = 80 g/ha, visual rating about 3 weeks after treatment vs untreated controls (100% = plants have died, 0% = like control plants)
[25] = 320 g/ha, visual rating about 3 weeks after treatment
[26] = 80 g/ha, effect in comparison to untreated controls

Post-emergence action against ORYSA in % (Oryza sativa (ORYSA); [26]) [%] | Structure (SMILES) | Pre-emergence action against ALOMY ([1]; 80 g/ha) [%] | Pre-emergence action against ALOMY ([1]; 320 g/ha) [%] | Pre-emergence action against AMARE in % ([2]; 80 g/ha) [%] | Pre-emergence action against AMARE in % ([2]; 320 g/ha) [%] | Pre-emergence action against AVEFA in % (Avena fatua (AVEFA) [3]; 320 g/ha) [%] | Pre-emergence action against ECHCG in % ([4]; dosage 320 g/ha) [%] | Pre-emergence action against LOLRI in % (Lolium rigidum (LOLRI) [5]; dosage 80 g/ha) [%] | Pre-emergence action against LOLRI in % (Lolium rigidum (LOLRI) [5]; dosage 320 g/ha) [%] | Pre-emergence action against MATIN in % [6] [%] | Pre-emergence action against PHBPU in % [7] [%] | Pre-emergence action against POLCO in % ([8]; dosage 80 g/ha) [%] | Pre-emergence action against POLCO in % ([8]; dosage 320 g/ha) [%] | Pre-emergence action against SETVI in % (Setaria viridis (SETVI) [9]; dosage 80 g/ha) [%] | Pre-emergence action against SETVI in % (Setaria viridis (SETVI) [9]; dosage 320 g/ha) [%] | Pre-emergence action against VERPE in % ([10]; dosage 80 g/ha) [%] | Pre-emergence action against VERPE in % ([10]; dosage 320 g/ha) [%] | Pre-emergence action against VIOTR in % (Viola tricolor (VIOTR) [11]; 320 g/ha, Viola tricolor) [%] | Post-emergence action against AMARE in % [14, 24] [%] | Post-emergence action against SETVI in % (Setaria viridis (SETVI) [19]; dosage 80 g/ha) [%] | also measured
0 | CC(NC(=O)[C@@H](C)Oc1nn(-c2ccccn2)c(-c2ccc(F)nc2)c1Cl)C(=O)O (some centres unmarked) [Example I-350] | 100 | 100 | 100 | 100 | 100 | 100 | 100 | 100 | 90 | 80 | 90 | 90 | 100 | 100 | 90 | 100 | 100 | 90 | 80 | Pre-emergence action against ECHCG in % ([4]; dosage 80 g/ha): 100%; Pre-emergence action against VIOTR in % (Viola tricolor (VIOTR) [11]; dosage 80 g/ha): 100%; Post-emergence action against ABUTH in % [12]: 90%; Post-emergence action against ALOMY in % ([13]; 320 g/ha): 90%; Post-emergence action against AMARE in % [14, 25]: 90%; Post-emergence action against AVEFA in % (Avena fatua (AVEFA) [15]; 80 g/ha): 90%; Post-emergence action against AVEFA in % (Avena fatua (AVEFA) [15]; 320 g/ha): 90%; Post-emergence action against ECHCG in % ([16]; dosage 80 g/ha): 80%; Post-emergence action against ECHCG in % ([16]; dosage 320 g/ha): 90%; Post-emergence action against LOLRI in % (Lolium rigidum (LOLRI) [17]; dosage 80 g/ha): 80%; Post-emergence action against LOLRI in % (Lolium rigidum (LOLRI) [17]; dosage 320 g/ha): 90%; Post-emergence action against POLCO in % ([18]; dosage 80 g/ha): 80%; Post-emergence action against POLCO in % ([18]; dosage 320 g/ha): 90%; Post-emergence action against SETVI in % (Setaria viridis (SETVI) [19]; dosage 320 g/ha): 90%; Post-emergence action against VERPE in % ([20]; 320 g/ha, VERPE): 90%; Post-emergence action against VIOTR in % (Viola tricolor (VIOTR) [21]; 80 g/ha): 90%; Post-emergence action against VIOTR in % (Viola tricolor (VIOTR) [21]; 320 g/ha): 90%; Post-emergence action against ORYSA in % (Oryza sativa (ORYSA); 320 g/ha, effect in comparison to untreated controls): 10%
10 | COC(=O)CCOC(=O)COc1nn(-c2ccccn2)c(-c2ccc(F)nc2)c1Br [Example I-116] | 90 | 100 | 90 | 100 | 90 | 100 | – | 100 | 90 | 90 | – | 90 | 90 | 100 | 90 | 90 | 90 | 90 | 80 | Post-emergence action against ALOMY in % ([13]; 80 g/ha): 90%; Post-emergence action against ECHCG in % ([16]; dosage 80 g/ha): 80%; Post-emergence action against MATIN in % ([22]; dosage 80 g/ha): 80%; Post-emergence action against VERPE in % ([20]; dosage 80 g/ha): 80%; Post-emergence action against ORYSA in % (Oryza sativa (ORYSA); 20 g/ha, effect vs untreated controls): 10%; Post-emergence action against ZEAMX in % (crop plant compatibility) (Zea mays (ZEAMX); 20 g/ha, ZEAMX, effect in comparison to untreated controls): 20%
20 | CC(Oc1nn(-c2ccccn2)c(-c2ccc(F)nc2)c1C(F)(F)F)C(=O)O (centres unmarked) [Example I-94] | 80 | 100 | 80 | 100 | 90 | 80 | 100 | 100 | 100 | – | 90 | 90 | – | 100 | – | 90 | 100 | 90 | 80 | Pre-emergence action against AVEFA in % (Avena fatua (AVEFA) [3]; 80 g/ha): 80%; Pre-emergence action against VIOTR in % (Viola tricolor (VIOTR) [11]; dosage 80 g/ha): 100%; Post-emergence action against ABUTH in % [12]: 80%; Post-emergence action against ALOMY in % ([13]; 80 g/ha): 80%; Post-emergence action against ALOMY in % ([13]; 320 g/ha): 100%; Post-emergence action against AMARE in % [14, 25]: 90%; Post-emergence action against AVEFA in % (Avena fatua (AVEFA) [15]; 80 g/ha): 80%; Post-emergence action against AVEFA in % (Avena fatua (AVEFA) [15]; 320 g/ha): 100%; Post-emergence action against ECHCG in % ([16]; dosage 320 g/ha): 90%; Post-emergence action against LOLRI in % (Lolium rigidum (LOLRI) [17]; dosage 320 g/ha): 100%; Post-emergence action against MATIN in % ([22]; dosage 320 g/ha): 80%; Post-emergence action against PHBPU in % [23]: 80%; Post-emergence action against POLCO in % ([18]; dosage 80 g/ha): 80%; Post-emergence action against POLCO in % ([18]; dosage 320 g/ha): 90%; Post-emergence action against SETVI in % (Setaria viridis (SETVI) [19]; dosage 320 g/ha): 90%; Post-emergence action against VERPE in % ([20]; 320 g/ha, VERPE): 90%; Post-emergence action against VIOTR in % (Viola tricolor (VIOTR) [21]; 80 g/ha): 90%; Post-emergence action against VIOTR in % (Viola tricolor (VIOTR) [21]; 320 g/ha): 90%; Post-emergence action against ZEAMX in % (Zea mays (ZEAMX); crop plant compatibility, 80 g/ha, effect vs untreated controls): 20%
